The supplement of paper PMC10307832

What was measured:
Test in all cases: relative viability (nuclei count vs DMSO), 5 days (fraction); higher = more cells survive
KN-93 = compound: CN(C/C=C/C1=CC=C(C=C1)Cl)CC2=CC=CC=C2N(CCO)S(=O)(=O)C3=CC=C(C=C3)OC [KN-93]
Method in brief: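 Lung cancer cell lines in 1536-well plates were exposed by pinning to five library-drug doses (not always all listed) √10 apart, following an overnight hold at 37 °C. MetaXpress counted Hoechst-stained nuclei from 4× images taken after 5 days without medium change. Viability is the median ratio of treated-well to vehicle-well nuclei across plates. Plates required control CV below 25% and at least one doubling.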

KN-93 + Dasatinib = compound: CN(C/C=C/C1=CC=C(C=C1)Cl)CC2=CC=CC=C2N(CCO)S(=O)(=O)C3=CC=C(C=C3)OC [KN-93] + Cc1nc(Nc2ncc(C(=O)Nc3c(C)cccc3Cl)s2)cc(N2CCN(CCO)CC2)n1 [Dasatinib] (partner 0.075 µM)
Method in brief: (§1)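 Lung cancer cell lines were seeded in 1536-well plates and dosed by pin tool the next day, with either a single drug or a fixed anchor-drug dose combined with five library-drug doses (not always all listed) spaced in √10 steps. Five days later, one step fixed the cells and stained their nuclei (final 0.05% Triton X-100, 1% formaldehyde, 1 ug/ml Hoechst), and nuclei were counted on 4× images. Relative viability is the nuclei count in treated wells divided by the count in vehicle wells, and each value is the median of duplicate plates.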

KN-93 + Pemetrexed = compound: CN(C/C=C/C1=CC=C(C=C1)Cl)CC2=CC=CC=C2N(CCO)S(=O)(=O)C3=CC=C(C=C3)OC [KN-93] + Nc1nc2[nH]cc(CCc3ccc(C(=O)N[C@@H](CCC(=O)O)C(=O)O)cc3)c2c(=O)[nH]1 [Pemetrexed] (partner 0.2 µM)
Method in brief: as §1

KN-93 + OSI-027 = compound: CN(C/C=C/C1=CC=C(C=C1)Cl)CC2=CC=CC=C2N(CCO)S(=O)(=O)C3=CC=C(C=C3)OC [KN-93] + COc1cccc2cc(-c3nc([C@H]4CC[C@H](C(=O)O)CC4)n4ncnc(N)c34)[nH]c12 [OSI-027] (partner 0.5 µM)
Method in brief: as §1

KN-93 + Vorinostat = compound: CN(C/C=C/C1=CC=C(C=C1)Cl)CC2=CC=CC=C2N(CCO)S(=O)(=O)C3=CC=C(C=C3)OC [KN-93] + O=C(CCCCCCC(=O)Nc1ccccc1)NO [Vorinostat] (partner 1 µM)
Method in brief: as §1

KN-93 + Phenformin = compound: CN(C/C=C/C1=CC=C(C=C1)Cl)CC2=CC=CC=C2N(CCO)S(=O)(=O)C3=CC=C(C=C3)OC [KN-93] + N=C(N)NC(=N)NCCc1ccccc1 [Phenformin] (partner 250 µM)
Method in brief: as §1

KN-93 + AZD7762 = compound: CN(C/C=C/C1=CC=C(C=C1)Cl)CC2=CC=CC=C2N(CCO)S(=O)(=O)C3=CC=C(C=C3)OC [KN-93] + NC(=O)Nc1cc(-c2cccc(F)c2)sc1C(=O)N[C@H]1CCCNC1 [AZD7762] (partner 0.2 µM)
Method in brief: as §1

KN-93 + Trametinib = compound: CN(C/C=C/C1=CC=C(C=C1)Cl)CC2=CC=CC=C2N(CCO)S(=O)(=O)C3=CC=C(C=C3)OC [KN-93] + CC(=O)Nc1cccc(-n2c(=O)n(C3CC3)c(=O)c3c(Nc4ccc(I)cc4F)n(C)c(=O)c(C)c32)c1 [Trametinib] (partner 0.02 µM)
Method in brief: as §1

KN-93 + Decitabine = compound: CN(C/C=C/C1=CC=C(C=C1)Cl)CC2=CC=CC=C2N(CCO)S(=O)(=O)C3=CC=C(C=C3)OC [KN-93] + Nc1ncn([C@H]2C[C@H](O)[C@@H](CO)O2)c(=O)n1 [Decitabine] (partner 2 µM)
Method in brief: as §1

KN-93 + Palbociclib = compound: CN(C/C=C/C1=CC=C(C=C1)Cl)CC2=CC=CC=C2N(CCO)S(=O)(=O)C3=CC=C(C=C3)OC [KN-93] + CC(=O)c1c(C)c2cnc(Nc3ccc(N4CCNCC4)cn3)nc2n(C2CCCC2)c1=O [Palbociclib] (partner 0.5 µM)
Method in brief: as §1

KN-93 + Tozasertib = compound: CN(C/C=C/C1=CC=C(C=C1)Cl)CC2=CC=CC=C2N(CCO)S(=O)(=O)C3=CC=C(C=C3)OC [KN-93] + Cc1cc(Nc2cc(N3CCN(C)CC3)nc(Sc3ccc(NC(=O)C4CC4)cc3)n2)n[nH]1 [Tozasertib] (partner 0.1 µM)
Method in brief: as §1

KN-93 + Olaparib = compound: CN(C/C=C/C1=CC=C(C=C1)Cl)CC2=CC=CC=C2N(CCO)S(=O)(=O)C3=CC=C(C=C3)OC [KN-93] + O=C(c1cc(Cc2n[nH]c(=O)c3ccccc23)ccc1F)N1CCN(C(=O)C2CC2)CC1 [Olaparib] (partner 8 µM)
Method in brief: as §1

KN-93 + Luminespib = compound: CN(C/C=C/C1=CC=C(C=C1)Cl)CC2=CC=CC=C2N(CCO)S(=O)(=O)C3=CC=C(C=C3)OC [KN-93] + CCNC(=O)c1noc(-c2cc(C(C)C)c(O)cc2O)c1-c1ccc(CN2CCOCC2)cc1 [Luminespib] (partner 0.01 µM)
Method in brief: as §1

**Q.** For NCI-H522, which relative viability (KN-93; 0.08 µM) is on record?
**A.** Its relative viability is 1.04.

**Q.** What about the relative viability (KN-93; 0.253 µM) of the same cell line?
**A.** Its relative viability is 0.986.

**Q.** And the relative viability (KN-93; 2.53 µM)?
**A.** Its relative viability is 1.04.

**Q.** What about the relative viability (KN-93; 8 µM) of the same cell line?
**A.** The relative viability was 0.783.

**Q.** And the relative viability (KN-93 + Dasatinib; first compound 0.08 µM)?
**A.** Its relative viability is 0.825.

**Q.** And the relative viability (KN-93 + Dasatinib; first compound 0.253 µM)?
**A.** Its relative viability is 0.949.

**Q.** And the relative viability (KN-93 + Dasatinib; first compound 2.53 µM)?
**A.** The relative viability was 0.846.

**Q.** What about the relative viability (KN-93 + Dasatinib; first compound 8 µM) of the same cell line?
**A.** The relative viability was 0.695.

**Q.** And the relative viability (KN-93 + Pemetrexed; first compound 0.08 µM)?
**A.** Its relative viability is 1.02.

**Q.** And the relative viability (KN-93 + Pemetrexed; first compound 0.253 µM)?
**A.** Its relative viability is 0.987.

**Q.** What about the relative viability (KN-93 + Pemetrexed; first compound 2.53 µM) of the same cell line?
**A.** Its relative viability is 1.29.

**Q.** What about the relative viability (KN-93 + Pemetrexed; first compound 8 µM) of the same cell line?
**A.** The relative viability was 0.779.

**Q.** And the relative viability (KN-93 + OSI-027; first compound 0.08 µM)?
**A.** Its relative viability is 0.824.

**Q.** What about the relative viability (KN-93 + OSI-027; first compound 0.253 µM) of the same cell line?
**A.** The relative viability was 0.746.

**Q.** And the relative viability (KN-93 + OSI-027; first compound 2.53 µM)?
**A.** The relative viability was 0.801.

**Q.** What about the relative viability (KN-93 + OSI-027; first compound 8 µM) of the same cell line?
**A.** The relative viability was 0.558.

**Q.** What about the relative viability (KN-93 + Vorinostat; first compound 0.08 µM) of the same cell line?
**A.** Its relative viability is 0.886.

**Q.** What about the relative viability (KN-93 + Vorinostat; first compound 0.253 µM) of the same cell line?
**A.** The relative viability was 0.966.

**Q.** And the relative viability (KN-93 + Vorinostat; first compound 2.53 µM)?
**A.** Its relative viability is 0.857.

**Q.** And the relative viability (KN-93 + Vorinostat; first compound 8 µM)?
**A.** Its relative viability is 0.858.

**Q.** And the relative viability (KN-93 + Phenformin; first compound 0.08 µM)?
**A.** The relative viability was 0.666.

**Q.** What about the relative viability (KN-93 + Phenformin; first compound 0.253 µM) of the same cell line?
**A.** The relative viability was 0.704.

**Q.** What about the relative viability (KN-93 + Phenformin; first compound 2.53 µM) of the same cell line?
**A.** The relative viability was 0.741.

**Q.** What about the relative viability (KN-93 + Phenformin; first compound 8 µM) of the same cell line?
**A.** Its relative viability is 0.636.

**Q.** What about the relative viability (KN-93 + AZD7762; first compound 0.08 µM) of the same cell line?
**A.** The relative viability was 0.831.

**Q.** And the relative viability (KN-93 + AZD7762; first compound 0.253 µM)?
**A.** Its relative viability is 0.811.

**Q.** And the relative viability (KN-93 + AZD7762; first compound 2.53 µM)?
**A.** The relative viability was 0.876.

**Q.** And the relative viability (KN-93 + AZD7762; first compound 8 µM)?
**A.** Its relative viability is 0.77.

**Q.** And the relative viability (KN-93 + Trametinib; first compound 0.08 µM)?
**A.** Its relative viability is 0.997.

**Q.** What about the relative viability (KN-93 + Trametinib; first compound 0.253 µM) of the same cell line?
**A.** The relative viability was 0.855.

**Q.** And the relative viability (KN-93 + Trametinib; first compound 2.53 µM)?
**A.** Its relative viability is 0.794.

**Q.** And the relative viability (KN-93 + Trametinib; first compound 8 µM)?
**A.** The relative viability was 0.595.

**Q.** What about the relative viability (KN-93 + Decitabine; first compound 0.08 µM) of the same cell line?
**A.** Its relative viability is 0.699.

**Q.** And the relative viability (KN-93 + Decitabine; first compound 0.253 µM)?
**A.** The relative viability was 0.625.

**Q.** And the relative viability (KN-93 + Decitabine; first compound 2.53 µM)?
**A.** Its relative viability is 0.7.

**Q.** What about the relative viability (KN-93 + Decitabine; first compound 8 µM) of the same cell line?
**A.** The relative viability was 0.707.

**Q.** What about the relative viability (KN-93 + Palbociclib; first compound 0.08 µM) of the same cell line?
**A.** The relative viability was 1.1.

**Q.** And the relative viability (KN-93 + Palbociclib; first compound 0.253 µM)?
**A.** Its relative viability is 1.31.

**Q.** What about the relative viability (KN-93 + Palbociclib; first compound 2.53 µM) of the same cell line?
**A.** The relative viability was 1.

**Q.** What about the relative viability (KN-93 + Palbociclib; first compound 8 µM) of the same cell line?
**A.** The relative viability was 0.81.

**Q.** And the relative viability (KN-93 + Tozasertib; first compound 0.08 µM)?
**A.** The relative viability was 0.551.

**Q.** And the relative viability (KN-93 + Tozasertib; first compound 0.253 µM)?
**A.** Its relative viability is 0.536.

**Q.** And the relative viability (KN-93 + Tozasertib; first compound 2.53 µM)?
**A.** Its relative viability is 0.566.

**Q.** What about the relative viability (KN-93 + Tozasertib; first compound 8 µM) of the same cell line?
**A.** The relative viability was 0.511.

**Q.** What about the relative viability (KN-93 + Olaparib; first compound 0.08 µM) of the same cell line?
**A.** Its relative viability is 0.61.

**Q.** And the relative viability (KN-93 + Olaparib; first compound 0.253 µM)?
**A.** The relative viability was 0.607.

**Q.** What about the relative viability (KN-93 + Olaparib; first compound 2.53 µM) of the same cell line?
**A.** The relative viability was 0.576.

**Q.** What about the relative viability (KN-93 + Olaparib; first compound 8 µM) of the same cell line?
**A.** The relative viability was 0.649.

**Q.** What about the relative viability (KN-93 + Luminespib; first compound 0.08 µM) of the same cell line?
**A.** Its relative viability is 1.28.

**Q.** What about the relative viability (KN-93 + Luminespib; first compound 0.253 µM) of the same cell line?
**A.** The relative viability was 1.4.

**Q.** What about the relative viability (KN-93 + Luminespib; first compound 2.53 µM) of the same cell line?
**A.** Its relative viability is 1.39.

**Q.** What about the relative viability (KN-93 + Luminespib; first compound 8 µM) of the same cell line?
**A.** Its relative viability is 1.11.
